The source of these data is US20070172957A1, “Methods of identifying anti-inflammatory macrolides” (TAISHO PHARMACEUTICAL CO., LTD., priority 2004, published 2007).

In the assay the test system is tobacco smoke-induced pulmonary emphysema. Nature of the assay: Model mice with tobacco smoke-induced pulmonary emphysema. Type of assay: in vivo. The following applies: for pulmonary alveolus size: 6 months, mean ± SE; for pulmonary emphysema rate: relative to non-smoking. The procedure: The model mice with tobacco smoke-induced pulmonary emphysema mimicking human pulmonary emphysema were constructed according to the method as described in Hautamaki, R. D. et al., Science 1997, 277: 2002-2004 or Shapiro, S. D. et al., Am. […] Specifically, C57black/6 female mice of 12-weeks old were exposed to tobacco smoke at two cigarettes per day, 6 days per week for 6 months.
Administration of clarithromycin was carried out orally at the rate of 25, 50 or 100 […] twice daily (morning and evening) during the tobacco smoke exposure period. The plasma AUC0-8 of clarithromycin obtained when 50 mg/kg was singly administered to the mice was 2.677 μg·hr/ml while the plasma AUC0-8 of clarithromycin obtained when 200 mg of clarithromycin was singly administered to a normal human subject was 8.98 μg·hr/ml. The former concentration was substantially lower than the latter one and was an adequate concentration to be used clinically.
The index of the improvement to the pulmonary emphysema condition followed the mothod as described in Hautamaki, R. D. et al., ibid. or Shapiro, S. D. et al., ibid.
Hematoxylin eosin-stained pathological specimens were prepared from the model mice and ten visual fields under a microscope were randomly selected, where the average sizes of pulmonary alveoli were measured. An increase in the average size of pulmonary alveolus is considered as an index of the destruction of pulmonary alveoli, i.e., the pulmonary emphysema condition.
The cell counts of inflammatory cells (microphages and neutrophiles) in the bronchoalveolar lavage fluids after six months' exposure were measured to provide an index of the inflammatory condition in the model mice with tobacco smoke-induced pulmonary emphysema.
It has been reported that as pulmonary emphysema progresses, pulmonary functions deteriorate. It has also been known that the pulmonary compliance, which is an index of pulmonary functions, increases in model mice with tobacco smoke-induced pulmonary emphysema. Thus, the pulmonary compliance was measured in the model mice with tobacco smoke-induced pulmonary emphysema after six months' exposure.

Molecules are shown by their SMILES.

Consider `CC[C@H]1OC(=O)[C@H](C)[C@@H](O[C@H]2C[C@@](C)(OC)[C@@H](O)[C@H](C)O2)[C@H](C)[C@@H](O[C@@H]2O[C@H](C)C[C@H](N(C)C)[C@H]2O)[C@](C)(OC)C[C@@H](C)C(=O)[C@H](C)[C@@H](O)[C@]1(C)O` [clarithromycin], for which the “cell count of macrophages in bronchoalveolar lavage fluids” value (after six months' exposure, FIG. 4A) was “reduced”. Besides, the “cell count of neutrophiles in bronchoalveolar lavage fluids” value (after six months' exposure, FIG. 4B) was “reduced”. Moreover, the pulmonary compliance entry (after six months' exposure, FIG. 5) is reported as “recovered”. The improvement factor is reported as 47% (smoking + CAM 25 mg/kg); “up to 87%” (smoking + CAM 50 mg/kg); 85% (smoking + CAM 50 mg/kg, listed as CAM); 66.5% (smoking + CAM 100 mg/kg). In addition, the pulmonary alveolus size runs as follows: (smoking + CAM 25 mg/kg orally twice daily) 35.60 ± 1.425 μm; (smoking + CAM 50 mg/kg orally twice daily) 33.16 ± 0.890 μm; (smoking + CAM 100 mg/kg orally twice daily) 34.35 ± 0.936 μm. Moreover, the pulmonary emphysema rate runs as follows: (smoking + CAM 25 mg/kg) 10.6%; (smoking + CAM 50 mg/kg) 3%; (smoking + CAM 100 mg/kg) 6.7%.
